{
  "source": "patent US12110258B2",
  "about": "“Coated fertilizer containing urease inhibitor” (SABIC Agri-Nutrients Company, priority 2018, dated 2024)",
  "test": "Inhibitor Stability Test (HPLC, non-degraded NBTPT remaining after storage)",
  "conditions": "2 weeks, RT (23 to 26° C.)",
  "procedure": "Inhibitor Stability Test: The stability test is used to indicate changes in stability of the urease inhibitor in different coated fertilizers or coating compositions under multiple conditions for different amounts of time. HPLC analysis was used to determine the amount of non-degraded inhibitor remaining at the end of the testing periods. Briefly, for the HPLC analysis procedure, approximately 4 grams of a sample and 20 ml of diluent was added into a 50 ml polypropylene tube. The sample was sonicated for 30 minutes with intermediate shaking and then vortexed for 1 hour using a vortex shaker. After vortexing, the sample was filtered using a 0.45μ syringe filter into a HPLC vial and injected into the HPLC.\nChromatographic Conditions:\n• Column: Phenomenex, Luna 5u Pnenyl hexyl 250*4.6, 5μ • Column oven temperature: 350° C. • Injection Vol.: 5 μL • Flow rate: 1.00 mL/min • Mobile Phase: Reservoir A—Milli Q Water; Reservoir C—Acetonitrile; Isocratic—Milli Q water/Acetonitrile (80:20% v/v) • Run Time: 15 minutes • Wavelength: 207 nm\nCalculation: Calibration standards were injected in duplicate and the calibration curve for NBTPT was constructed by plotting the concentration (mg/mL) in X-axis and Instrument response (area) in the Y-axis. The unknown concentrations of NBTPT in the samples were calculated using the formula y=mx+c with the appropriate dilution factor applied. […]",
  "data": [
    {"compound": "CCCCNP(N)(N)=S", "note": "[compound 4, N-(n-butyl) thiophosphoric triamide]", "values": [
      {"measurement": "% NBTPT Degradation", "result": 0, "unit": "%"}
    ]}
  ]
}
